The numbers were not newly measured in patent publication US20260373165A1, “PHARMACEUTICAL COMBINATIONS AND COMPOSITIONS, AND METHODS OF USE THEREOF” (SHENZHEN HIGHTIDE BIOPHARMACEUTICAL LTD., priority 2022, published 2026), which cites them from elsewhere.

The conditions of this series: after 52 weeks of treatment, lower dose of semaglutide; cited from earlier work.

Structures are written as SMILES.

As to `Cc1ccc([C@@H]2O[C@H](CO)[C@@H](O)[C@H](O)[C@H]2O)cc1Cc1ccc(-c2ccc(F)cc2)s1` [cangliflozin, canagliflozin], the “average decrease in total fat mass” value is recorded as 7.8% and the “average decrease in total muscle mass” value is listed as 2.9%.
